Source: patent publication US7253177B2, “Synthesis and antimalarial activity of pyrrolo[3,2-f]quinazoline-1,3-diamine derivatives” (United States of America as Represented by the Secretary of …, priority 2004, dated 2007)
Several values for one entry are separate records, joined by “and”; a condition that tells them apart may be missing. Equal values may be shown once.

System: P. cynomolgi sporozoites
Test: Presumptive causal prophylactic test against P. cynomolgi in Rhesus monkey
Assay type: in vivo, Plasmodium cynomolgi
Conditions: for protection compared with untreated control: oral 3 mg/kg, 3 mg/kg
Protocol: (e). Toxicity Study in Aotus monkey: Protocol: Two malaria double cured Aotus weighing 1027-695 grams respectively received single dose of 3 mg/kg orally of the two compounds 2b and 3e. The monkeys were weighed and pre-bleed for CBC and Chemistry (ALT, BUN, Creatinine) determination, and again three, seven and 15 days post treatment. Signs of toxicity such as anorexia, vomiting, diarrhea or behavior changes were recorded. […] (f). Antimalarial Activity against P. falciparum in Aotus monkey: Protocol: Six (6) malaria naive Aotus lemurinus lemurinus (weigh 787-978 grms) were divided into two groups of two Aotus each plus two controls (MN13177 male and MN 13153 male) and infected with 5×10^6 P. falciparum FVO malaria parasites with 1 ml of an appropriate dilution in RPMI media intravenously on the saphenous vein. When their parasitemia reached 5×10^4 parasites/ul, treatment was started. Giemsa-stained thick blood smears were prepared daily with a prick in the ear marginal vein and parasites enumerated by the Earle and Perez method. Group 1 Aotus received 3e at 1 mg/kg once a day×three days. Group 2 Aotus received 2b at 1 mg/kg once a day×three days. The monkeys were weight and pre-bled for CBC and Chemistry (ALT, BUN, Creatinine) determination, and on day 4 post-treatmetne (PT). Bleedings for Pk determinations were carried out on day 1 PT at time 0, 1 hr, 7:30 hr and 24 hr PT. Group 1 (receiving 3e) animals cleared the parasitemias on day 3 post treatment (PT) and remained negative up to 100 days PT. In group 2 (receiving 2b), one animal cleared on day 3 PT and the other one on day 4 PT remaining negative up to 100 days PT. […] (g). Antimalarial Activity against P. vivax in Aotus monkey: Protocol: Fourteen (14) P. falciparum cured Aotus l. lemurinus monkeys (male and female) (weight 700-925 grms) were infected intravenously with 5×10^6 parasites of the P. vivax AMRU-1 strain diluted in RPMI media obtained from a donor and divided into two larger groups of 6 monkeys each (Group I and Group II) (2 monkeys per dose level), that received 3e and 6 monkeys (2 monkeys per dose level) that received 2b daily at 0.5, 1.0 and 3 mg/kg/day for a total of 3 days. Two monkeys were left has untreated controls. Treatment started when parasitemia reached 5,000 parasites×cc/mm on day 6 PI. Daily food intake was documented. Daily Giemsa-stained thick blood smears were prepared from a prick in the marginal ear vein and parasites enumerated by the Earle and Perez method. The animals were weighed at weekly intervals. Blood samples for Pk determination were collected at the following time points as follows: Day 0: CBC and chemistry panel (ALT. Creatinine and BUN); Day 4: CBC and chemistry Panel. CBC and chemistry panels were done the day prior to first dose and 24 hours after last dose and at weekly intervals thereafter. […] The other monkeys received 1 and 3 mg/kg of 3e remained negative until day 100 PT. In Group II, all monkeys except for one that received 3 mg/kg of 2b failed treatment and were retreated on day 3 PT with 3e at either 0.25, 0.5 or 1 mg/kg for three days. In the monkeys that received re-treatment at 0.25 mg/kg, one cleared on day 4 PT but needed to be treated with Mefloquine on day 8 PT due to a low platelet count. The other animals that had not been cleared by day 6 PT were treated with Mefloquine. […] P. vivax is known to be very drug resistant to antifolates. (h). Presumptive Causal Prophylactic Test against P. cynomolgi in Rhesus monkey: Protocol:
(1). Type of study: This study is causal prophylactic test. Six Rhesus monkeys weighing 3-4 kg were randomized to 2 control animals and 2 groups of 2 experimental animals each.
(2). Donor monkey: A donor monkey was inoculated intravenously with 1.3 mL freshly-thawed frozen infected red blood cell. When the monkey developed gametocytemia, mosquito feedings were conducted on days 13 and 14 after inoculation. […]

Row | SMILES | comparative protection activity (P. cynomolgi) | day of parasitemia development after sporozoite challenge (oral 1 mg/kg on days -1, 0, 1, control day 8, listed as WR288830) | protection compared with untreated control | day of parasitemia development after sporozoite challenge (oral 1 mg/kg on days -1, 0, 1, control day 8) | day of parasitemia development after sporozoite challenge (oral 3 mg/kg on days -1, 0, 1, control day 8) [days]
1 | CCOC(=O)Nc1nc(NC(=O)OCC)c2c(ccc3c2ccn3Cc2ccccc2C(F)(F)F)n1 [Compound 2b] | better protection activity than 3e | 9 days and 15 days | 8 days and 15 days | – | –
2 | CC(=O)N(C(C)=O)c1nc(N(C(C)=O)C(C)=O)c2c(ccc3c2ccn3Cc2ccccc2C(F)(F)F)n1 [Compound 3e, 1,3-Bis(diacetylamino)-7-(2-trifluoromethyl)benzyl-7H-pyrrolo[3,2-f]quinazoline] | – | – | 7 days | 8 days and 11 days | 15
